Test system: fecal coliform
Experiment: Fecal coliform count of wastewater at the contact chamber exit after peracetic acid dosing
Type: cell-based
Conditions: post-sand filter wastewater, 60 min average contact time
Procedure: Wastewater was diverted post-sand filter treatment at a wastewater treatment plant into a rectangular weir disinfectant contact chamber. The flow rate of wastewater through the contact chamber was set at seven gallons per minute; the average contact time in the contact chamber was 60 minutes.
VigorOx® WWT peracetic acid (FMC Corporation; 15% peracetic acid, 23% hydrogen peroxide by weight) was dosed into the wastewater through Control Corporation lab grade pumps. In Comparative Experiment A, the PAA was introduced just prior to the wastewater's entrance into the contact chamber at a rate of 6.1 ppm. In Example 1, PAA was introduced just prior to the wastewater's entrance into the contact chamber at a rate of 1.5 ppm; and additionally at a point 50 minutes after the wastewater's entry into the contact chamber at a rate of 4.5 ppm. The fecal coliform count of the wastewater was measured at the point the wastewater exited from the contact chamber.

Compound: CC(=O)OO [PAA, peracetic acid]
- samples tested with no-detectable readings of coliform bacteria (Comparative Experiment A: PAA added at a sole point just prior to entrance into contact chamber, 6.1 ppm): about 35%
- samples tested with no-detectable readings of coliform bacteria (Example 1: PAA added at two points, 1.5 ppm just prior to entrance and 4.5 ppm at 50 minutes after entry): about 50%
